How the values were obtained:
hSERT = target: T1, hSERT (Homo sapiens, UniProt P31645); assay: hSERT membrane radioligand binding assay (3H-citalopram); settings: compound of Example 1 tested as TFA salt; read-out: SERT pKi (converted)
T1 construct: expressed in transfected cells; host or cells: HEK-293 derived cell line, stably transfected; membranes
Procedure: (§1) Membrane radioligand binding assays were used to measure competitive inhibition of labeled ligand (^3H-citalopram or ^3H-nisoxetine or ^3H-WIN35428) binding to membranes prepared from cells expressing the respective human recombinant transporter (hSERT or hNET or hDAT) in order to determine the pKi values of test compounds at the transporters.
(§2) Recombinant human embryonic kidney (HEK-293) derived cell lines stably transfected with hSERT or hNET, respectively, were grown in DMEM medium supplemented with 10% dialyzed FBS (for hSERT) or FBS (for hNET), 100 μg/ml penicillin, 100 μg/ml streptomycin, 2 mM L-glutamine and 250 μg/ml of the aminoglycoside antibiotic G418, in a 5% CO2 humidified incubator at 37° C. When cultures reached 80% confluence, the cells were washed thoroughly in PBS (without Ca^2+ and Mg^2+) and lifted with 5 mM EDTA in PBS. […] Protein concentration of the membrane suspension was determined using a Bio-Rad Bradford Protein Assay kit. […]
(§3) Following a 60 minute incubation at 22° C. […] Plates were dried overnight at room temperature, ˜45 μl of MicroScint™-20 (Perkin Elmer) added and bound radioactivity quantitated via liquid scintillation spectroscopy. Competitive inhibition curves and saturation isotherms were analyzed using GraphPad Prism Software package (GraphPad Software, Inc., San Diego, CA). […]

hNET = target: T2, hNET (Homo sapiens, UniProt P23975); assay: hNET membrane radioligand binding assay (3H-nisoxetine); settings: compound of Example 1 tested as TFA salt; read-out: NET pKi (converted)
T2 construct: expressed in transfected cells; host or cells: HEK-293 derived cell line, stably transfected; membranes
T2 sequence (P23975 whole entry): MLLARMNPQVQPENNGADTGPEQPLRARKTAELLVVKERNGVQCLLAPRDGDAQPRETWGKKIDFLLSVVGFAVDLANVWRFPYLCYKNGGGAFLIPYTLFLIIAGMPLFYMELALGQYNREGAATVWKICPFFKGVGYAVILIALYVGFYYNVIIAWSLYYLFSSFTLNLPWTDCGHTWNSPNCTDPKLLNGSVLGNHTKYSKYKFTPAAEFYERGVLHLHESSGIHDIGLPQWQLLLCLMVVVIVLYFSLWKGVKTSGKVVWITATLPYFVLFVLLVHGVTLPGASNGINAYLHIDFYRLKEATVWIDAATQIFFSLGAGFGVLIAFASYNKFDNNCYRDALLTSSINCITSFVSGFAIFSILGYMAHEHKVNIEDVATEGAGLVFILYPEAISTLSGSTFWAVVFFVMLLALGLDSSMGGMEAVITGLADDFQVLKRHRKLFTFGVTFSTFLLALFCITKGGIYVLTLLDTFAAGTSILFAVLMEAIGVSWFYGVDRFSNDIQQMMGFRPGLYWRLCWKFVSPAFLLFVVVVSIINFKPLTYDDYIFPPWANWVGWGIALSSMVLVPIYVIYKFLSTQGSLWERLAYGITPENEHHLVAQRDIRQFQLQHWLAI
Procedure: as §1, §2, §3

[1] = Thermal analysis by differential scanning calorimetry (DSC); format: physicochemical; settings: heating ramp 10° C./min from 22° C. to 250° C.
Procedure: Differential scanning calorimetry (DSC) was performed using a TA Instruments Model Q-100 module with a Thermal Analyst controller. Data were collected and analyzed using TA Instruments Thermal Solutions software. A 2.8 mg sample of the crystalline hydrochloride salt of Example 2 was accurately weighed into a covered aluminum pan. After a 5 minute isothermal equilibration period at 22° C., the sample was heated using a linear heating ramp of 10° C./min from 22° C. to 250° C.

T1 sequence (P31645 whole entry): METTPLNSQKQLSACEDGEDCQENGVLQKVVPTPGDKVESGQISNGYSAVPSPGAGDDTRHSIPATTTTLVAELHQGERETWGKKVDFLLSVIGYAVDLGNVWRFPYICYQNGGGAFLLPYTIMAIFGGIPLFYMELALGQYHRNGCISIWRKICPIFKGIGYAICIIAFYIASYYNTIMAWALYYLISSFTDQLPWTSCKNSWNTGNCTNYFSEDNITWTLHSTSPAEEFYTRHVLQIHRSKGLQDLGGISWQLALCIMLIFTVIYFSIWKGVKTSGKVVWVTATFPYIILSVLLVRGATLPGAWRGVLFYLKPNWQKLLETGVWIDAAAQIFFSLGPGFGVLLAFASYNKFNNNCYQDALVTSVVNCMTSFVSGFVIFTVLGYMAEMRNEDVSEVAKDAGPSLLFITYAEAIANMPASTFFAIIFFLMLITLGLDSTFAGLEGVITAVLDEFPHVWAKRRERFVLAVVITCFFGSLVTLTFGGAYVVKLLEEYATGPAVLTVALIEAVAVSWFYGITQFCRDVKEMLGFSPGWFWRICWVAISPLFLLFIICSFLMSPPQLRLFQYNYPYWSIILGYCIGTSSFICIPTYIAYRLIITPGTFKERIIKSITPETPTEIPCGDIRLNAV

Ki (hSERT): ≤ 12.6 nM | Ki (hNET): ≤ 10 nM | thermal stability (thermal decomposition by DSC) [1]: no thermal decomposition below 200.0 °C
Compound: Fc1cc(F)c(OCc2ccccc2C2CCNCC2)c(F)c1 [Example 1, 4-[2-(2,4,6-Trifluorophenoxymethyl)phenyl]piperidine]

From patent publication US12239638B2, “Crystalline form of a 4-[2-(2-fluorophenoxymethyl)phenyl]piperidine compound” (THERAVANCE BIOPHARMA R&D IP, LLC, priority 2008, dated 2025)
